Source: PubChem BioAssay (NCI)
Several values for one entry are separate records, joined by “and”; a condition that tells them apart may be missing. Equal entries are not always repeated.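 Five compound concentrations were applied to cells in 96-well plates for 48 hours; endpoints were derived by simple linear interpolation of the resulting dose-response curve. Here, GI50 denotes the concentration required for 50% inhibition of growth. TGI denotes the concentration required for complete inhibition of growth.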

Experiments:
Experiment in all cases: growth of human tumour cells (NCI), 48 h
[1] = tested on: SNB-75 CNS
[2] = tested on: 786-0 renal
[3] = tested on: HCC-2998 colon
[4] = tested on: HOP-92 NSCLC
[5] = tested on: HS 578T breast
[6] = tested on: ACHN renal
[7] = tested on: TK-10 renal
[8] = tested on: DU-145 prostate
[9] = tested on: CCRF-CEM leukemia
[10] = tested on: DMS 114 small cell lung

N#CCc1[nH]nc2nc(SCc3ccccc3)nc(N3CCCCC3)c12
TGI [1]: 33.7 µM
TGI [2]: 31.8 µM
TGI [3]: 31.9 µM
TGI [4]: 31.6 µM
TGI [5]: 39.2 µM
TGI [6]: 41.5 µM
TGI [7]: 40.5 µM
TGI [8]: 33.6 µM
TGI [9]: 33.8 µM

CC(=O)C1(c2ccccc2)CCCN(C)CC1 (stereo not given)
TGI [1]: > 100 µM
TGI [3]: > 100 µM
TGI [4]: > 100 µM
TGI [5]: > 100 µM
TGI [7]: > 100 µM
TGI [8]: > 100 µM
TGI [9]: > 100 µM

O=C1c2ccccc2-c2ccc(O)cc21
TGI [1]: > 100 µM
TGI [2]: > 100 µM
TGI [5]: > 100 µM
TGI [6]: 33.2 µM
TGI [7]: 49.5 µM
TGI [8]: 49.1 µM

COc1ccc(OC)c2sc(N3C(=O)/C(=C/c4ccccc4S)N=C3c3ccccc3)nc12
TGI [1]: 57.2 µM
TGI [2]: > 100 µM
TGI [3]: > 100 µM
TGI [4]: > 100 µM
TGI [5]: > 100 µM
TGI [6]: > 100 µM
TGI [7]: > 100 µM
TGI [8]: > 100 µM
TGI [9]: 42.5 µM

CCn1cc(C(=O)O)c(=O)c2cc(F)c(N3CCN(Cn4c(O)c(N=NC(=O)c5ccncc5)c5cc(Cl)ccc54)CC3)cc21
TGI [1]: 70.1 µM
TGI [2]: > 100 µM
TGI [3]: > 100 µM
TGI [4]: > 100 µM
TGI [5]: > 100 µM
TGI [6]: > 100 µM
TGI [7]: 71.3 µM
TGI [8]: > 100 µM

CCC(C)C(NC(=O)C(CCCCN)NC(=O)C(NC(=O)C(CCC(N)=O)NC(=O)C(CCCNC(=N)N)NC(C)=O)C(C)CC)C(=O)NC(Cc1c[nH]c2ccccc12)C(=O)NC(Cc1ccccc1)C(=O)NC(CCC(N)=O)C(=O)NC(CC(N)=O)C(=O)NC(CCCNC(=N)N)C(=O)NC(CCCNC(=N)N)C(=O)NC(CCSC)C(=O)NC(CCCCN)C(=O)NC(Cc1c[nH]c2ccccc12)C(=O)NC(CCCCN)C(=O)NC(CCCCN)C(N)=O (stereo not given)
TGI [2]: 42.1 µM
TGI [3]: > 50 µM
TGI [4]: > 50 µM
TGI [5]: > 50 µM
TGI [6]: > 50 µM
TGI [7]: > 50 µM
TGI [8]: > 50 µM
TGI [9]: > 50 µM

COC1CCC(OS(C)(=O)=O)CO1 (stereo not given)
TGI [1]: > 100 µM
TGI [4]: > 100 µM
TGI [6]: > 100 µM
TGI [10]: > 100 µM
TGI [9]: 91.7 µM

CN1CCC23c4ccccc4NC1C21CCN(C)C3Nc2ccccc21
TGI [1]: > 375 µM
TGI [3]: > 375 µM
TGI [4]: 296 µM
TGI [10]: > 375 µM
TGI [9]: > 188 µM

S=C(NCCCCCCNC(=S)Nc1c2ccccc2nc2ccccc12)Nc1c2ccccc2nc2ccccc12
TGI [1]: > 100 µM
TGI [3]: > 100 µM
TGI [4]: > 100 µM
TGI [9]: > 100 µM

O=C1c2scnc2-c2nccc3c2c1nc1ccccc13
TGI [1]: 1.92 µM
TGI [3]: 2.48 µM
TGI [4]: 4.85 µM
TGI [5]: > 100 µM
TGI [6]: 2.15 µM
TGI [8]: 3.14 µM
TGI [9]: > 100 µM

N=C(N)C(N=Nc1ccccc1)C(=N)N (stereo not given)
TGI [2]: > 100 µM
TGI [3]: 32.9 µM
TGI [4]: 83.9 µM
TGI [5]: > 100 µM
TGI [6]: > 100 µM
TGI [7]: > 100 µM
TGI [8]: > 100 µM
TGI [9]: 40.6 µM

CO[C@@]12C[C@@H](CNC(=O)c3cc(Br)c[nH]3)O[C@@H]1NC(=O)N2
TGI [1]: > 100 µM
TGI [2]: > 100 µM
TGI [5]: > 100 µM
TGI [6]: > 100 µM
TGI [7]: > 100 µM
TGI [8]: > 100 µM
TGI [9]: > 100 µM

COc1nc(C#CCCCC#N)nc(OC)n1
TGI [1]: 75.7 µM
TGI [2]: 41.7 µM
TGI [5]: > 100 µM
TGI [6]: 21.8 µM
TGI [7]: 37.7 µM
TGI [8]: 23.3 µM

Cc1nc(Cl)c(C)c(Cl)n1
TGI [1]: > 100 µM
TGI [2]: > 100 µM
TGI [3]: > 100 µM
TGI [5]: > 100 µM
TGI [6]: > 100 µM
TGI [7]: > 100 µM
TGI [8]: > 100 µM
TGI [9]: > 100 µM

C=CCOCCCC(=O)C(=[N+]=[N-])C(=O)OC
TGI [1]: > 100 µM
TGI [2]: > 100 µM
TGI [3]: > 100 µM
TGI [4]: > 100 µM
TGI [6]: > 100 µM
TGI [7]: > 100 µM
TGI [8]: > 100 µM
TGI [9]: > 100 µM

C=C1C(C2(C)C=CC(=O)OC3(C)COC(=O)CC32)C(OC=O)C(OC(=O)C(O)C(C)CC)C2(C)C(c3ccoc3)CC(OC(C)=O)C12O (stereo not given)
TGI [1]: > 100 µM
TGI [2]: > 100 µM
TGI [3]: > 100 µM
TGI [4]: > 100 µM
TGI [5]: > 100 µM
TGI [6]: > 100 µM
TGI [7]: > 100 µM
TGI [8]: > 100 µM
TGI [9]: > 100 µM

Cc1c(N)nc([C@H](CC(N)=O)NC[C@H](N)C(N)=O)nc1C(=O)N[C@H](C(=O)N[C@H](C)[C@@H](O)[C@H](C)C(=O)N[C@H](C(=O)NCCc1nc(-c2nc(C(=O)NCCC[S+](C)C)cs2)cs1)[C@@H](C)O)C(OC1OC(CO)C(O)C(O)C1OC1OC(CO)C(O)C(OC(N)=O)C1O)c1cnc[nH]1 (stereo not given in full)
GI50 [1]: 5.98 µM and 1.06 µM
TGI [1]: 6.42 µM and 13.4 µM and 18.8 µM
GI50 [6]: 0.0135 µM and 0.0134 µM
TGI [6]: 0.343 µM and 0.34 µM and 1.03 µM
GI50 [7]: 2.36 µM and 20.4 µM
TGI [8]: 20.2 µM and 5.4 µM and 30 µM
GI50 [10]: 1.29 µM
TGI [10]: 5.68 µM and 29 µM
TGI [9]: 25 µM [middle of 4 runs]

CCCCC1Cc2cc(OC)ccc2-c2nc3cc(OC)ccc3n21 (stereo not given) (tested in a mixture with another compound)
TGI [2]: 27.8 µM
TGI [4]: 17.1 µM
TGI [5]: 25.3 µM
TGI [6]: 28.4 µM
TGI [7]: 35.5 µM
TGI [8]: 30 µM
TGI [9]: 34.1 µM

COC1(OC)C[C@H](C)[C@@]23O[C@]24c2cc(O)c5c(c2N[C@H]3C#C/C=C\C#C[C@]14O)C(=O)c1ccccc1C5=O
GI50 [1]: 0.0028 µM
TGI [1]: 0.00927 µM and 0.0318 µM
TGI [2]: 0.0245 µM
GI50 [3]: 0.0197 µM
TGI [3]: 0.0855 µM and 0.0544 µM
TGI [4]: 0.00982 µM
GI50 [5]: 0.0847 µM
TGI [5]: 0.516 µM and 3.6 µM
TGI [7]: 0.401 µM
GI50 [8]: 0.00164 µM
TGI [8]: 0.00686 µM and 0.048 µM
GI50 [9]: 0.005 µM
TGI [9]: 0.00572 µM and 0.0539 µM

OC(c1ccc(-c2ccccc2)cc1)(c1ccc(-c2ccccc2)cc1)c1ccc(-c2ccccc2)cc1
TGI [2]: > 100 µM
TGI [5]: > 100 µM
TGI [6]: > 100 µM
TGI [7]: > 100 µM
TGI [8]: > 100 µM

Cc1c(Cl)c(=O)oc2cc(OCC(=O)c3ccccc3)ccc12
TGI [3]: > 100 µM
TGI [4]: > 100 µM
TGI [5]: > 100 µM
TGI [6]: > 100 µM
TGI [7]: > 100 µM
TGI [8]: > 100 µM
TGI [9]: > 100 µM

CC(=O)C1=C(O)C2(O)C(=O)c3c(c(C)c4ccc(C)c(O)c4c3O)CC2C(N)C1=O (stereo not given)
TGI [1]: 16.7 µM
TGI [2]: 16.8 µM
TGI [3]: 15 µM
TGI [4]: 6.2 µM
GI50 [5]: 1.99 µM
TGI [5]: 9.48 µM
TGI [6]: 7.19 µM
TGI [7]: 8.86 µM
GI50 [8]: 2.41 µM
TGI [8]: 14.7 µM
TGI [10]: 7.17 µM
TGI [9]: 18.6 µM

CN(C)CCNc1c([N+](=O)[O-])cc2c3c(cccc13)C(=O)N(CCN(C)C)C2=O
TGI [1]: 4.18 µM
TGI [3]: 2.72 µM
TGI [4]: 2.36 µM
TGI [10]: 3.1 µM
TGI [9]: > 100 µM

O=C(O)C(Cc1ccccc1)N1C(=O)c2ccccc2C1=O (stereo not given)
TGI [2]: > 100 µM
TGI [3]: > 100 µM
TGI [4]: > 100 µM
TGI [5]: > 100 µM
TGI [6]: > 100 µM
TGI [7]: > 100 µM
TGI [8]: > 100 µM
TGI [9]: 65.1 µM

Cc1c2c(cc3c1[nH]c1ccccc13)C(c1ccc(F)cc1)=NCC2
TGI [1]: 4.39 µM
TGI [3]: 2.8 µM
TGI [4]: 7.27 µM
TGI [10]: 2.41 µM
TGI [9]: 7.2 µM

O=C1CC(N2C(=O)/C(=C/C(Cl)=C\c3ccc([N+](=O)[O-])cc3)SC2=S)C(=O)N1c1ccc(Cl)cc1 (stereo not given)
GI50 [3]: 1.59 µM
TGI [3]: 3.03 µM
GI50 [4]: 2.58 µM
TGI [4]: 6.79 µM
GI50 [5]: 1.8 µM
TGI [5]: > 100 µM
GI50 [7]: 2.79 µM
TGI [7]: 8.63 µM
GI50 [9]: 0.486 µM
TGI [9]: 12.4 µM
